Tests used:
[1] = system: pigmented B16 melanoma (B16wt); experiment: Tumour boron uptake and retention in subcutaneous pigmented B16 tumours; type: in vivo, C57/BL mice; details: for Tumour boron conc. / Tumour-to-blood ratio (boron): BSH 50 mg kg-1 boron single dose, B16.wt
From the text: (§1) Br. J. Cancer (1994), 69, 641 647 ? Macmillan Press Ltd., 1994~~~~~~~~~~~~~~~~~~~~~~~~~~~~~~~~~~~~~~~~~~~~~~~~~~~~~~~~~~~~~~~~~~~~~~~~~~~~~~~~~~~~~ Pharmacokinetics in melanoma-bearing- mice of 5-dihydroxyboryl- 6-propyl-2-thiouracil (BPTU), a candidate compound for boron neutron capture therapy R. Verrijkl, I.J.H. Smolders', R. Huiskamp2, P.R. Gavin3,. K.H.I. Philipp2 & A.C. Begg' 'The Netherlands Cancer Institute, Division of Experimental Therapy, Plesmanlaan 121, 1066 CX, Amsterdam, The Netherlands; 2The Netherlands Energy Research Foundation, Division of Radiobiology and Radioecology, PO Box 1, 1755 SG, Petten, The Netherlands; 3Department of Veterinary Clinical Medicine and Surgery and Washington Animal Disease and Diagnostic Laboratory, Washington State University, Pullman, Washington 99164-6610, USA. Summary Blood pharmacokinetics and tissue distribution of 5-dihydroxyboryl-6-propyl-2-thiouracil (BPTU), a boron carrier with postulated melanin-seeking properties for boron neutron capture therapy, were deter- mined in C57/BL mice with subcutaneous pigmented or non-pigmented B16 melanomas. Borocaptate sodium (BSH) was used as a boron compound without melanin-seeking properties in a comparative biodistribution study in the same animal tumour models. […] BPTU was found in large concentra- tions in kidney and liver. Brain boron was approximately 10-fold lower than tumour boron. […] Owing to solubility limits, tumour boron concentrations in this mouse study were too low for effective application of BNCT. However, the high tumour-to-blood and tumour-to-normal tissues ratios indicate that, with appropriate formulation, BPTU could be a promising candidate for clinical BNCT. […] The selective accumulation of "'B-containing compounds in tumours and subsequent irradiation with low-energy (thermal) neutrons form the basis of BNCT. The short track lengths of `'B(n,a)7Li fission pro- ducts (9 and 5 iLm for a and 7Li respectively) offer partial restriction of the radiation dose to the "'B-containing cells. Additional advantages owing to the high-LET (linear energy transfer) character of the emitted radiation are higher biological efficacies compared with photons or X-rays and less effect of hypoxia or cell cycle distribution on the therapeutic effect. The relatively high resistance of melanomas for photon therapy and the presence of a bio- chemical rationale for boron targeting explain the efforts made in this area (Mishima et al., 1989; Madoc Jones et al., 1990). The often high rate of melanogenesis in melanoma cells has led to the development of several boron drugs with melanoma-seeking capacity. The L-isomer of boronphenylalanine (BPA) is taken up by melanoma cells both in vitro and in vivo (Ichihashi et al., 1982; 1989; Coderre et al., 1987; 1990; Allen et al., 1992; Packer et al., 1992). Animal studies on BNCT efficacy and normal tissue tolerance with BPA have also been performed (Coderre et al., 1991; 1992; Hiratsuka et al., 1991). Although the uptake of BPA in melanoma cells is well accepted, incor- poration of boron into melanin might not occur, resulting in poor retention. Boronated thiouracils that enter the melanogenesis pathway at a different point from BPA have been recently synthesised, aiming at boron incorporation into the melanin for better retention (Tjarks & Gabel, 1991). […] Since the radiation dose in BNCT is mainly dependent on cellular boron levels, amelanotic tumour cell subpopulations may limit the efficacy of boron compounds that target the pigmented tumour cell fraction only. […] Begg. Received 1 September 1993; and in revised form 15 November 1993. into cell populations with different pigmentation levels in experimental tumour models, melanomas often increase in the amelanotic fraction with tumour progression and metas- tasis development in humans (Guiliano et al., 1982; Elder, 1987). It is therefore important to establish the capacity of melanoma-seeking boron drugs to target the amelanotic cells in a tumour. […]

[2] = system: subcutaneous fibrosarcoma RIF-1; experiment: BSH boron pharmacokinetics in blood and RIF-1 tumour tissue; type: in vivo, C3H/Km mice
[3] = Blood boron pharmacokinetics in B16 melanoma-bearing mice (ICP-AES, two-compartment fit); type: in vivo, C57/BL mice; details: for Cmax blood, maximum boron concentration in blood: calculated values, BSH 50 mg kg-1 boron i.v.
From the text: (§2) Br. J. Cancer (1994), 69, 641 647 ? Macmillan Press Ltd., 1994~~~~~~~~~~~~~~~~~~~~~~~~~~~~~~~~~~~~~~~~~~~~~~~~~~~~~~~~~~~~~~~~~~~~~~~~~~~~~~~~~~~~~ Pharmacokinetics in melanoma-bearing- mice of 5-dihydroxyboryl- 6-propyl-2-thiouracil (BPTU), a candidate compound for boron neutron capture therapy R. Verrijkl, I.J.H. Smolders', R. Huiskamp2, P.R. Gavin3,. K.H.I. Philipp2 & A.C. Begg' 'The Netherlands Cancer Institute, Division of Experimental Therapy, Plesmanlaan 121, 1066 CX, Amsterdam, The Netherlands; 2The Netherlands Energy Research Foundation, Division of Radiobiology and Radioecology, PO Box 1, 1755 SG, Petten, The Netherlands; 3Department of Veterinary Clinical Medicine and Surgery and Washington Animal Disease and Diagnostic Laboratory, Washington State University, Pullman, Washington 99164-6610, USA. Summary Blood pharmacokinetics and tissue distribution of 5-dihydroxyboryl-6-propyl-2-thiouracil (BPTU), a boron carrier with postulated melanin-seeking properties for boron neutron capture therapy, were deter- mined in C57/BL mice with subcutaneous pigmented or non-pigmented B16 melanomas. Borocaptate sodium (BSH) was used as a boron compound without melanin-seeking properties in a comparative biodistribution study in the same animal tumour models. […] BPTU was found in large concentra- tions in kidney and liver. Brain boron was approximately 10-fold lower than tumour boron. […] Owing to solubility limits, tumour boron concentrations in this mouse study were too low for effective application of BNCT. However, the high tumour-to-blood and tumour-to-normal tissues ratios indicate that, with appropriate formulation, BPTU could be a promising candidate for clinical BNCT. […] The selective accumulation of "'B-containing compounds in tumours and subsequent irradiation with low-energy (thermal) neutrons form the basis of BNCT. The short track lengths of `'B(n,a)7Li fission pro- ducts (9 and 5 iLm for a and 7Li respectively) offer partial restriction of the radiation dose to the "'B-containing cells. […]

[4] = system: melanotic B16 cells; details: cited from earlier work; for Retention in cells in vitro: after washing, ref R. Verrijk et al., 1991, unpublished data
[5] = Boron distribution in blood and normal tissues (skin, muscle, brain, kidneys, liver) of tumour-bearing mice; type: in vivo, C57/BL mice
From the text: as §2, with “cells. Additional advantages owing to the high-LET (linear energy transfer) character of the emitted radiation are higher biological efficacies compared with photons or X-rays and less effect of hypoxia or cell cycle distribution on the therapeutic effect. The relatively high resistance of melanomas for photon therapy and the presence of a bio- chemical rationale for boron targeting explain the efforts made in this area (Mishima et al., 1989; Madoc Jones et al., 1990). The often high rate of melanogenesis in melanoma cells has led to the development of several boron drugs with melanoma-seeking capacity.” for “cells.”

[6] = system: non-pigmented B16.013 melanoma; experiment: Tumour boron uptake and retention in subcutaneous non-pigmented B16.013 tumours; type: in vivo, C57/BL mice; details: for Tumour boron conc. / Tumour-to-blood ratio (boron): BSH 50 mg kg-1 boron single dose, B16.013
From the text: as §1

[7] = system: non-pigmented B16.013 subclone; set-up: method as in R. Verrijk et al., 1991, unpublished data; details: non-pigmented B16.013 cells; ref R. Verrijk et al., 1991, unpublished data; cited from earlier work
[8] = Solubility limit in formulation for injection; type: physicochemical; details: limited the dose administered to mice
From the text: Br. J. Cancer (1994), 69, 641 647 ? Macmillan Press Ltd., 1994~~~~~~~~~~~~~~~~~~~~~~~~~~~~~~~~~~~~~~~~~~~~~~~~~~~~~~~~~~~~~~~~~~~~~~~~~~~~~~~~~~~~~ Pharmacokinetics in melanoma-bearing- mice of 5-dihydroxyboryl- 6-propyl-2-thiouracil (BPTU), a candidate compound for boron neutron capture therapy R. Verrijkl, I.J.H. Smolders', R. Huiskamp2, P.R. Gavin3,. K.H.I. Philipp2 & A.C. Begg' 'The Netherlands Cancer Institute, Division of Experimental Therapy, Plesmanlaan 121, 1066 CX, Amsterdam, The Netherlands; 2The Netherlands Energy Research Foundation, Division of Radiobiology and Radioecology, PO Box 1, 1755 SG, Petten, The Netherlands; 3Department of Veterinary Clinical Medicine and Surgery and Washington Animal Disease and Diagnostic Laboratory, Washington State University, Pullman, Washington 99164-6610, USA. Summary Blood pharmacokinetics and tissue distribution of 5-dihydroxyboryl-6-propyl-2-thiouracil (BPTU), a boron carrier with postulated melanin-seeking properties for boron neutron capture therapy, were deter- mined in C57/BL mice with subcutaneous pigmented or non-pigmented B16 melanomas. Borocaptate sodium (BSH) was used as a boron compound without melanin-seeking properties in a comparative biodistribution study in the same animal tumour models. […] BPTU was found in large concentra- tions in kidney and liver. Brain boron was approximately 10-fold lower than tumour boron. […]

[9] = BSH 50 mg kg-1 boron i.v., 12 min after administration

Compound: Borocaptate sodium [BSH]
- Mean ratio Cmax tumour/injected dose ([1]; BSH 50 mg kg-1 boron i.v., B16wt tumour): 0.7
- Tumour boron conc. ([1]; 4 h): 7.6 g g-g'
- Tumour-to-blood ratio (boron) ([1]; 4 h): 1.1
- Tumour boron conc. ([1]; 24 h): 2.3 g g-g'
- Tumour-to-blood ratio (boron) ([1]; 24 h): 3.4
- Retention of boron in tumour ([1]; BSH 50 mg kg-1 boron, 24 and 48 h, pigmented B16): retained in B16 tumours at 24 and 48 h, irrespective of pigmentation degree
- Cmax tumour, maximum boron concentration in tumour ([1]; highest measured values, BSH 50 mg kg-1 boron i.v., B16wt tumour): 32.8 3.52 g mg-
- Tumour-to-blood ratios of boron ([2]; BSH 50 mg kg-1 boron, RIF-1 fibrosarcoma, 24 or 48 h): not significantly above unity
- Boron tumour-to-blood ratios ([2]; BSH, at times before 24 h, tumour model not named at the place): below 1
- Cmax values relative to BPTU ([3]; BSH 50 vs BPTU 3.15 mg kg-1 boron): approximately 10 fold
- Cmax blood, maximum boron concentration in blood ([3]; B16wt-bearing mice): 59.4 ± 10.6 g mli
- Cmax blood, maximum boron concentration in blood ([3]; B16.013-bearing mice): 54.1 ± 14.6 g mli
- Levels of boron in cells vs culture medium ([4]; melanotic B16 cells incubated with BSH, ref Verrijk et al., 1992): higher than in the culture medium only after 16 h incubation
- Cellular boron retention after washing ([4]; melanotic B16 cells, washing with boron-free culture medium for 4 h, ref Verrijk et al., 1992): Partial cel- lular boron retention
- Liver boron level [5, 9]: up to 230 Agg- g
- Liver boron relative to blood boron [5, 9]: 8 fold
- Liver-to-kidney boron concentration ratio ([5]; BSH, during the tissue distribution phase): 2-4
- Mean ratio Cmax tumour/injected dose ([6]; BSH 50 mg kg-1 boron i.v., B16.013 tumour): 1.0
- Tumour boron conc. ([6]; 4 h): 10.5 g g-g'
- Tumour-to-blood ratio (boron) ([6]; 4 h): 1.5
- Tumour boron conc. ([6]; 24 h): 2.2 g g-g'
- Tumour-to-blood ratio (boron) ([6]; 24 h): 4.0
- Retention of boron in tumour ([6]; BSH 50 mg kg-1 boron, 24 and 48 h, non-pigmented B16): retained in B16 tumours at 24 and 48 h, irrespective of pigmentation degree
- Cmax tumour, maximum boron concentration in tumour ([6]; highest measured values, BSH 50 mg kg-1 boron i.v., B16.013 tumour): 49.8 11.0 g mg-

Compound: O=c1[nH]c(=S)[nH]cc1B(O)O [BTU, boronthiouracil]
- Retention in cells in vitro ([4]; melanotic B16 cells): showed no retention at all in either cell line
- Retention in cells in vitro [7]: showed no retention at all in either cell line

Compound: CCCc1[nH]c(=S)[nH]c(=O)c1B(O)O [BPTU, 5-dihydroxyboryl-6-propyl-2-thiouracil]
- Change of mean tumour boron concentration, multiple vs single BPTU administration ([1]; 4 x 3.15 vs 3.15 mg kg-1 boron, 24 h, pigmented B16): increased more than three times
- Solubility [8]: insufficient solubility
- Retention in cells in vitro ([4]; melanotic B16 cells): better retained in the cells than BPA or BSH
- Retention in cells in vitro [7]: failed to be retained
- Boron in kidney and liver ([5]; BPTU single doses): found in large concentrations in kidney and liver
- Tumour boron vs blood boron profile ([6]; BPTU single dose, non-pigmented tumour variant): tumour boron levels closely followed blood levels

Source: article PMC1968811, “Pharmacokinetics in melanoma-bearing mice of 5-dihydroxyboryl-6-propyl-2-thiouracil (BPTU), a candidate compound for boron neutron capture therapy” (British Journal of Cancer, 1994)
